Test results published in patent publication US10131652B2, “Pyrimidinyloxy benzene derivatives as herbicides” (E. I. DU PONT DE NEMOURS AND COMPANY, priority 2014, dated 2018).

Legend:
Assay in all cases: Test D pre-/postemergence plant response
Assay type in all cases: in vivo
[1] = tested on: Italian ryegrass (Lolium multiflorum)
Method in brief: (§1)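 Visual rating, 0–100 scale (0 = no effect, 100 = complete control), versus untreated controls 13 to 15 days after treatment in greenhouse. Preemergence: seeds in loam/sand soil. Postemergence: 2 to 18 cm plants, 1- to 4-leaf stage, peat-based medium. Compounds formulated in non-phytotoxic solvent plus surfactant.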

[2] = tested on: barnyardgrass (Echinochloa crus-galli)
Method in brief: as §1

[3] = tested on: blackgrass (Alopecurus myosuroides)
Method in brief: as §1

[4] = tested on: corn (Zea mays)
Method in brief: as §1

[5] = tested on: galium (catchweed bedstraw, Galium aparine)
Method in brief: as §1

[6] = tested on: giant foxtail (Setaria faberii)
Method in brief: as §1

[7] = tested on: johnsongrass (Sorghum halepense)
Method in brief: as §1

[8] = tested on: lambsquarters (Chenopodium album)
Method in brief: as §1

[9] = tested on: large (Lg) crabgrass (Digitaria sanguinalis)
Method in brief: as §1

[10] = Postemergence, 31 g ai/ha, scale 0 to 100 (0 no effect, 100 complete control)
[11] = Postemergence, 62 g ai/ha, scale 0 to 100, 0 no effect, 100 complete control
[12] = Postemergence, 125 g ai/ha, scale 0 to 100, 0 no effect, 100 complete control
[13] = Preemergence, 16 g ai/ha, scale 0 to 100 (0 no effect, 100 complete control)
[14] = Preemergence, 31 g ai/ha, scale 0 to 100 (0 no effect, 100 complete control)
[15] = Preemergence, 62 g ai/ha, scale 0 to 100 (0 no effect, 100 complete control)

FC(F)c1cc(-c2c(Cl)cccc2Oc2ncc(Cl)cn2)no1 [Compound 179]
Plant response rating (scale 0 to 100), Ryegrass, Italian ([1]; Postemergence, 16 g ai/ha): 0 | Ryegrass, Italian plant response rating [1, 10]: 5 | Ryegrass, Italian plant response rating [1, 11]: 5 | Plant response rating, Ryegrass, Italian [1, 12]: 20 | Plant response rating (scale 0 to 100), Ryegrass, Italian ([1]; Preemergence, 125 g ai/ha): 80 | Plant response rating, Ryegrass, Italian [1, 13]: 0 | Plant response rating, Ryegrass, Italian [1, 14]: 5 | Plant response rating, Ryegrass, Italian [1, 15]: 15 | Plant response rating (scale 0 to 100), Barnyardgrass ([2]; Postemergence, 16 g ai/ha): 0 | Barnyardgrass plant response rating [2, 10]: 0 | Plant response rating, Barnyardgrass [2, 11]: 5 | Plant response rating, Barnyardgrass [2, 12]: 5 | Plant response rating (scale 0 to 100), Barnyardgrass ([2]; Preemergence, 125 g ai/ha): 35 | Plant response rating, Barnyardgrass [2, 13]: 0 | Plant response rating, Barnyardgrass [2, 14]: 5 | Plant response rating, Barnyardgrass [2, 15]: 15 | Plant response rating (scale 0 to 100), Blackgrass ([3]; Postemergence, 16 g ai/ha): 5 | Blackgrass plant response rating [3, 10]: 5 | Plant response rating, Blackgrass [3, 11]: 15 | Plant response rating, Blackgrass [3, 12]: 20 | Plant response rating (scale 0 to 100), Blackgrass ([3]; Preemergence, 125 g ai/ha): 80 | Plant response rating, Blackgrass [3, 13]: 0 | Plant response rating, Blackgrass [3, 14]: 30 | Plant response rating, Blackgrass [3, 15]: 45 | Plant response rating (scale 0 to 100), Corn ([4]; Postemergence, 16 g ai/ha): 5 | Corn plant response rating [4, 10]: 10 | Plant response rating, Corn [4, 11]: 10 | Plant response rating, Corn [4, 12]: 15 | Plant response rating (scale 0 to 100), Corn ([4]; Preemergence, 125 g ai/ha): 5 | Plant response rating, Corn [4, 13]: 0 | Plant response rating, Corn [4, 14]: 0 | Plant response rating, Corn [4, 15]: 0 | Plant response rating (scale 0 to 100), Galium ([5]; Postemergence, 16 g ai/ha): 70 | Galium plant response rating [5, 10]: 80 | Plant response rating, Galium [5, 11]: 70 | Plant response rating, Galium [5, 12]: 75 | Plant response rating (scale 0 to 100), Galium ([5]; Preemergence, 125 g ai/ha): 98 | Plant response rating, Galium [5, 13]: 90 | Plant response rating, Galium [5, 14]: 90 | Plant response rating, Galium [5, 15]: 90 | Plant response rating (scale 0 to 100), Foxtail, Giant ([6]; Postemergence, 16 g ai/ha): 5 | Foxtail, Giant plant response rating [6, 10]: 5 | Plant response rating, Foxtail, Giant [6, 11]: 40 | Plant response rating, Foxtail, Giant [6, 12]: 30 | Plant response rating (scale 0 to 100), Foxtail, Giant ([6]; Preemergence, 125 g ai/ha): 85 | Plant response rating, Foxtail, Giant [6, 13]: 5 | Plant response rating, Foxtail, Giant [6, 14]: 30 | Plant response rating, Foxtail, Giant [6, 15]: 85 | Plant response rating (scale 0 to 100), Johnsongrass ([7]; Postemergence, 16 g ai/ha): 0 | Johnsongrass plant response rating [7, 10]: 5 | Plant response rating, Johnsongrass [7, 11]: 5 | Plant response rating, Johnsongrass [7, 12]: 5 | Plant response rating (scale 0 to 100), Johnsongrass ([7]; Preemergence, 125 g ai/ha): 65 | Plant response rating, Johnsongrass [7, 13]: 0 | Plant response rating, Johnsongrass [7, 14]: 0 | Plant response rating, Johnsongrass [7, 15]: 20 | Plant response rating (scale 0 to 100), Lambsquarters ([8]; Postemergence, 16 g ai/ha): 70 | Lambsquarters plant response rating [8, 10]: 75 | Lambsquarters plant response rating [8, 11]: 75 | Plant response rating, Lambsquarters [8, 12]: 100 | Plant response rating (scale 0 to 100), Lambsquarters ([8]; Preemergence, 125 g ai/ha): 100 | Plant response rating, Lambsquarters [8, 13]: 75 | Plant response rating, Lambsquarters [8, 14]: 100 | Plant response rating, Lambsquarters [8, 15]: 100 | Plant response rating (scale 0 to 100), Crabgrass, Large ([9]; Postemergence, 16 g ai/ha): 5 | Crabgrass, Large plant response rating [9, 10]: 5 | Plant response rating, Crabgrass, Large [9, 11]: 5 | Plant response rating, Crabgrass, Large [9, 12]: 5 | Plant response rating (scale 0 to 100), Crabgrass, Large ([9]; Preemergence, 125 g ai/ha): 100 | Plant response rating, Crabgrass, Large [9, 13]: 10 | Plant response rating, Crabgrass, Large [9, 14]: 65
